Source: patent publication US7691858B2, “Kinase inhibitors and methods of use thereof” (TargeGen, Inc., priority 2006, dated 2010)
“Also recorded” adds a separate entry of the source.

What was measured:
Fer = molecular target: T1, Fer (Homo sapiens, UniProt P16591); assay: Kinase panel screen; type: biochemical; settings: Compound I and ATP 10 μM
T1 construct: purchased Upstate USA or Invitrogen (contract screening service)

DDR2 = molecular target: T2, DDR2 (Homo sapiens, UniProt Q16832); assay: Kinase panel screen; type: biochemical; settings: Compound I and ATP 10 μM
T2 construct: purchased Upstate USA or Invitrogen (commercial screening service)

Akt1 = molecular target: T3, Akt1 (Homo sapiens, UniProt P31749); assay: Kinase panel screen; type: biochemical; settings: Compound I at 1 μM and ATP at the apparent Km
T3 construct: purchased Upstate USA or Invitrogen (commercial screening service)

cSrc = molecular target: T4, cSrc (Homo sapiens, UniProt P12931); assay: Kinase panel screen; type: biochemical; settings: Compound I and ATP 10 μM
T4 construct: purchased Upstate USA or Invitrogen (commercial screening service)

NEK6 = molecular target: T5, NEK6 (Homo sapiens, UniProt Q9HC98); assay: Kinase panel screen; type: biochemical; settings: Compound I and ATP 10 μM
T5 construct: purchased Upstate USA or Invitrogen (commercial screening service)

histamine-induced edema = assay: Miles assay, histamine as agonist; type: in vivo, Sprague-Dawley rats; settings: rats, Compound I pretreatment (1 mg/kg in FIG. 4)
Protocol: Sprague-Dawley rats were first injected IV with vehicle alone or test agent, followed by IV injection of Evans blue dye, followed by intradermal injections of saline and VEGF (200 ng/injection site) along both shaved flanks. […] The ability of test agents to influence edema induced by agonists other than VEGF was also tested. Compounds cited in this application inhibited edema formation induced using histamine as an agonist, for example, as shown below. The ability of test agent to influence vascular edema was tested as above, except that the ability to block edema was tested using either VEGF or histamine as the agonist (200 ng and 10 μg/injection site, respectively).

cKit = molecular target: T6, cKit (Homo sapiens, UniProt P10721); assay: Kinase panel screen; type: biochemical; settings: Compound I and ATP 10 μM
T6 construct: purchased Upstate USA or Invitrogen (commercial screening service)

ROCK-I = molecular target: T7, ROCK-I (Homo sapiens, UniProt Q13464); assay: Kinase panel screen; type: biochemical; settings: Compound I and ATP 10 μM
T7 construct: purchased Upstate USA or Invitrogen (commercial screening service)

IR = molecular target: T8, IR (Homo sapiens, UniProt P06213); assay: Kinase panel screen; type: biochemical; settings: Compound I and ATP 10 μM
T8 construct: purchased Upstate USA or Invitrogen (commercial screening service)

myocardial infarct = assay: Porcine MI model; type: in vivo, pig
Protocol: PI3Kγ/δ inhibition limits infarct development in a porcine MI model. In a final series of studies, MIs were modeled in the pig, as this species better approximates human coronary anatomy and responses to myocardial I/R injury. With aggressive model parameters of a 90 min ischemic period, therapeutic dosing 30 min post-reperfusion and infarct measurement at 24 h, we typically observed ischemic zones representing 20-30% of the total LV and 20-30% infarction of this area in control animals. […] Measuring infarct area as percent of total LV ischemic area, infarct size was reduced by 35% (P=0.04). […] Finally, taking advantage of the larger porcine heart to make more detailed measurements, infarct areas within the LV free wall only (as opposed to the free plus attached wall measurements reported up to this point) were also determined, reasoning that free wall infarcts are of greatest relevance to overall myocardial function.
Porcine MI model: All animal studies followed current “NIH Guidelines for the Use of Laboratory Animals” and were performed according to IACUC-approved protocols. Farm swine (Landrace-Duroc cross, 32-41 kg) were acclimated for 1-3 weeks prior to study group randomization. On the day of surgery, animals (fasted overnight) were first administered aspirin, clopridogrel and nifedipine (650, 300 and 300 mg p.o., respectively), followed by atropine sulfate and telazol (0.05 and 7 mg/kg i.m., respectively). Anesthesia was then induced with ketamine and xylazine (25 mg/kg each i.m.) followed by intubation and maintenance on inhaled isoflurane; body temperature was maintained at 35-37° C. using heating pads. For each animal, the ventral neck was shaved and scrubbed with iodine, an arterial sheath inserted into the carotid artery, and under fluoroscopic guidance a guide catheter advanced to the coronary artery ostium. Angiographic images were used to guide angioplasty balloon placement (below the first major LAD bifurcation). After advancing through the guide catheter to the proper location, the balloon was inflated at a steady rate to a pressure sufficient to ensure complete occlusion of the LAD (verified by fluoroscopy), and occlusion maintained for 90 min. Blood pressure was monitored throughout the surgical procedure and adjusted as needed, and ECG monitored for arrhythmias as well as to confirm LAD occlusion. Lactated Ringer's solution was maintained as an i.v. drip (via the auricular vein), and heparin given to maintain an activated clotting time of ˜300 seconds. […] At the end of the ischemic period, the balloon was deflated and removed, and the ischemic area allowed to reperfuse (again verified by fluoroscopy). Catheters were removed, the arterial access ligated, the surgical area closed in layers and buprenorphine (0.01 mg/kg i.m.) administered.
On Study Day 2 (24 hr post-LAD occlusion), a surgical plane of anesthesia was established with sodium pentobarbital, and the LAD exposed and occluded using a suture snare at the same level as previously. Evans blue dye (100 ml of 0.1% saline solution) was injected i.v. and allowed to circulate for 5 min prior to explanting the heart. Hearts were cut into approximately 1 cm short axis slices and TTC stained and photographed as described for the rodent MI model. […]

PKCi = molecular target: T9, PKCi (Homo sapiens, UniProt P41743); assay: Kinase panel screen; type: biochemical; settings: Compound I and ATP 10 μM
T9 construct: purchased Upstate USA or Invitrogen (commercial screening service)

MINK = molecular target: T10, MINK (Homo sapiens, UniProt Q8N4C8); assay: Kinase panel screen; type: biochemical; settings: Compound I and ATP 10 μM
T10 construct: purchased Upstate USA or Invitrogen (contract screening service)

Blk = molecular target: T11, Blk (Mus musculus, UniProt P16277); assay: Kinase panel screen; type: biochemical; settings: Compound I and ATP 10 μM
T11 construct: purchased Upstate USA or Invitrogen (commercial screening service)

PKD2 = molecular target: T12, PKD2 (Homo sapiens, UniProt Q9BZL6); assay: Kinase panel screen; type: biochemical; settings: Compound I and ATP 10 μM
T12 construct: purchased Upstate USA or Invitrogen (contract screening service)

[1] = single 0.5 mg/kg i.v. bolus 30 min post-reperfusion, 24 h

T11 sequence (P16277 whole entry): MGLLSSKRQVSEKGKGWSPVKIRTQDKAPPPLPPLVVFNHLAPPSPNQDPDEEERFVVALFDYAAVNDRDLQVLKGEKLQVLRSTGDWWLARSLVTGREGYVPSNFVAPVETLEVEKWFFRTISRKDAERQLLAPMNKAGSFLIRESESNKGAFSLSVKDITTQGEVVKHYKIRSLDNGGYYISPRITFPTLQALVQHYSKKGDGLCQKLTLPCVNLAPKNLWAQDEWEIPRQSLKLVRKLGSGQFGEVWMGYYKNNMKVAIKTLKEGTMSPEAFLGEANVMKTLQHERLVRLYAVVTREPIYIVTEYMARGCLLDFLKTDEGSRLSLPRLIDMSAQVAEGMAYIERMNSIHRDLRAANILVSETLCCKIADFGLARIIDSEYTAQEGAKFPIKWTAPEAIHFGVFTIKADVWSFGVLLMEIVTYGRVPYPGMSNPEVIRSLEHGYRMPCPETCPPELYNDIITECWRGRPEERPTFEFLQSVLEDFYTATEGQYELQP
T12 sequence (Q9BZL6 whole entry): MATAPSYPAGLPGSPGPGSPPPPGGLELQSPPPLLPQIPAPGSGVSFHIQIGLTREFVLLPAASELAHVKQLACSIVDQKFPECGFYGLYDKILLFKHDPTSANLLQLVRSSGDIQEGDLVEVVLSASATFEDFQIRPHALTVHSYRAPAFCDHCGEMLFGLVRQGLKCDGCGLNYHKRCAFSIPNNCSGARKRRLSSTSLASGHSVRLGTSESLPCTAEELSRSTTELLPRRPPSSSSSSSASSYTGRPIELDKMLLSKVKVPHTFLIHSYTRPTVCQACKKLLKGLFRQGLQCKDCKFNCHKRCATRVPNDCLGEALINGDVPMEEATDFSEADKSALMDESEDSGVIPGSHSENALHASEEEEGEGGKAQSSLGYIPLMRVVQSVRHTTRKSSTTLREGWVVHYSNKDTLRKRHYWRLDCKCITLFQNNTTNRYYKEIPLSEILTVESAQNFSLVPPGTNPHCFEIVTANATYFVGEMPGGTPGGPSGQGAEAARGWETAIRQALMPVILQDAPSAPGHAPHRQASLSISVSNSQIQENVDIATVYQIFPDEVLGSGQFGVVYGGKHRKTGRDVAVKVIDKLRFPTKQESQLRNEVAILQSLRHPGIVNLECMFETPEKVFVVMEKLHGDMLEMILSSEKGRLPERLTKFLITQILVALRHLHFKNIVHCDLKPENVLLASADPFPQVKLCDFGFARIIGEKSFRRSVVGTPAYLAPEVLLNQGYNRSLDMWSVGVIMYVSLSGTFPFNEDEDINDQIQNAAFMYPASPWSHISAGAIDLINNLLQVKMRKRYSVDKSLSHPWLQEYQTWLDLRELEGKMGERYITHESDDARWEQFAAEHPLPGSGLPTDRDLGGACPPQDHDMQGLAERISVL
T10 sequence (Q8N4C8 whole entry): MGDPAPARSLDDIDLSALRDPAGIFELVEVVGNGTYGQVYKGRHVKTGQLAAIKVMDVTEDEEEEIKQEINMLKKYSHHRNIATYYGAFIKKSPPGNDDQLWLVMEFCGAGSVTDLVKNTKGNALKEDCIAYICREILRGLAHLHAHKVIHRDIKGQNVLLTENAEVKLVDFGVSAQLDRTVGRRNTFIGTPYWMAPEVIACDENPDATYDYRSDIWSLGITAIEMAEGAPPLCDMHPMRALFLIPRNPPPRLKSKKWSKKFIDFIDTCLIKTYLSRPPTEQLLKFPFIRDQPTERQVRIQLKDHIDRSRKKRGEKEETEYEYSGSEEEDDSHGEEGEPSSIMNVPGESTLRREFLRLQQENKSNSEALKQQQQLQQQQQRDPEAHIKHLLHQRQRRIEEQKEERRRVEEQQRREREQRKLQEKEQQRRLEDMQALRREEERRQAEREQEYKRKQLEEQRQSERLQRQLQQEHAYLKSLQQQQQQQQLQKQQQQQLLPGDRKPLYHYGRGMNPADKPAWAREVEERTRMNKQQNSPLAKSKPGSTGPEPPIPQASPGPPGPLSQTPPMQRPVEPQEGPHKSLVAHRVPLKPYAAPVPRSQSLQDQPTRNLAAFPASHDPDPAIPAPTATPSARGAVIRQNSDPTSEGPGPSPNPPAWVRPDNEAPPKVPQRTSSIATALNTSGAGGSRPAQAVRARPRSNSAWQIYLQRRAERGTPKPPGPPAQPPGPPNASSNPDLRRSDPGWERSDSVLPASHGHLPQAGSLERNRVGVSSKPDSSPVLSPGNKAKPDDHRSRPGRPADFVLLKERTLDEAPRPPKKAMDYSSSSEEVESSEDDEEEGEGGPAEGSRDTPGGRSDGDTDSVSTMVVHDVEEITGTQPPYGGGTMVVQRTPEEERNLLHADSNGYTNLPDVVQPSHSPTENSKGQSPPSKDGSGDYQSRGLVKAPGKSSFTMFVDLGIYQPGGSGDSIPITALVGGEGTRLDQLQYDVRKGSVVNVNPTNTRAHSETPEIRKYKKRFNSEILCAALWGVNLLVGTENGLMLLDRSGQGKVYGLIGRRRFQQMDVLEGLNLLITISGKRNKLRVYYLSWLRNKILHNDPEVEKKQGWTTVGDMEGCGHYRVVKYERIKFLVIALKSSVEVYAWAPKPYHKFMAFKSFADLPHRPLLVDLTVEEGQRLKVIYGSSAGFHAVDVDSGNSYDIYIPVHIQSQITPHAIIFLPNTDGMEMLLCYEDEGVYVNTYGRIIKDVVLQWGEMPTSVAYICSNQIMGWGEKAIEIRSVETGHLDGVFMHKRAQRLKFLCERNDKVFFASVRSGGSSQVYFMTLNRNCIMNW
T8 sequence (P06213 28-1382): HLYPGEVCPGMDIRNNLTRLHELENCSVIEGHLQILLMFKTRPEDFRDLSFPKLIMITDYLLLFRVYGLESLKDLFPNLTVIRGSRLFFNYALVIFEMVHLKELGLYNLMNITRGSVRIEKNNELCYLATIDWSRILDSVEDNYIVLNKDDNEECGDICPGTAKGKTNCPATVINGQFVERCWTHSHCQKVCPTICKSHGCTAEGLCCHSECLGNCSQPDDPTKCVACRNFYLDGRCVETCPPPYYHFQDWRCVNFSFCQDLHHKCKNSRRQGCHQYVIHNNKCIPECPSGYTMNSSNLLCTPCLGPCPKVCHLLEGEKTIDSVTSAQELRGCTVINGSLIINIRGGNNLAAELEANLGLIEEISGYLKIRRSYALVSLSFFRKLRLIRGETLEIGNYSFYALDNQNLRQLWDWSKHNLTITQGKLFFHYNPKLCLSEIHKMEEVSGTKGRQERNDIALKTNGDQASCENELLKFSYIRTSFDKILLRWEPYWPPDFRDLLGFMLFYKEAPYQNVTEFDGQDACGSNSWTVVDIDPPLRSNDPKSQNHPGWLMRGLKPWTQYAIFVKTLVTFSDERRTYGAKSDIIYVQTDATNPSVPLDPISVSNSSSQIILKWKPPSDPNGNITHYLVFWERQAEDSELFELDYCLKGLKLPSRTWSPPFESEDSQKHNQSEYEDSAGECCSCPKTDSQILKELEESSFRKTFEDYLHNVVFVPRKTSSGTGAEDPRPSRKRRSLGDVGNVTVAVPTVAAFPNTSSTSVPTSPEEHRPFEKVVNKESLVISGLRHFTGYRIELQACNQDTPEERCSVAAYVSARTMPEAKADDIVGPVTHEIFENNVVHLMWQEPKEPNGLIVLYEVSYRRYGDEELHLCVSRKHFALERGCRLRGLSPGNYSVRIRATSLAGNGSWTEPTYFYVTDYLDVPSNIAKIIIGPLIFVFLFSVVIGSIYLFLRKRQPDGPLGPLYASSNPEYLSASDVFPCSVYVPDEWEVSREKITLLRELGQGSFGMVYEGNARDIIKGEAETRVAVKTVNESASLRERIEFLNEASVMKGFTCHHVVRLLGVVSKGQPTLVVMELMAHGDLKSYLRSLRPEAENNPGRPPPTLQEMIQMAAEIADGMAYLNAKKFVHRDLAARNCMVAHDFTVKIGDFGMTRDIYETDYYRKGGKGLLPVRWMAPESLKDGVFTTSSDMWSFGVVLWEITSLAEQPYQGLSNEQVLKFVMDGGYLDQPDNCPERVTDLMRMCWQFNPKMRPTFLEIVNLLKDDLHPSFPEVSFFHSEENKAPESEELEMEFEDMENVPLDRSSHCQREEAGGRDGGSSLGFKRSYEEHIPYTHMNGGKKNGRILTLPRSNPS
T9 sequence (P41743 whole entry): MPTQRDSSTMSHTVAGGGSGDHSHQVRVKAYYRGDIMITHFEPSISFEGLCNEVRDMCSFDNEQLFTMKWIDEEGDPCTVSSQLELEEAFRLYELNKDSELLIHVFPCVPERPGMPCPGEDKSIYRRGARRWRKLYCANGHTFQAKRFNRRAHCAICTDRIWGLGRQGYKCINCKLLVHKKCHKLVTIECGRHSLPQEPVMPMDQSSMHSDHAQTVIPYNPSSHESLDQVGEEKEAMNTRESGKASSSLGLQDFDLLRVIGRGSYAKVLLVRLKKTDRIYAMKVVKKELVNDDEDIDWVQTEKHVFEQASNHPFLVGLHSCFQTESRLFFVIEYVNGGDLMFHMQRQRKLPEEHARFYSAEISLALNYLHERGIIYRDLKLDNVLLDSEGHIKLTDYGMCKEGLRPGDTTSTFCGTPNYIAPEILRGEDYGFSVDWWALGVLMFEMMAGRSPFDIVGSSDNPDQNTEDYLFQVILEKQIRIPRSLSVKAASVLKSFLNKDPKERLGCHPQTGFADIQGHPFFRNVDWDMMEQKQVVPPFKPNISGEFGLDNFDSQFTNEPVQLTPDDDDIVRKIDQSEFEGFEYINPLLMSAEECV
T5 sequence (Q9HC98 whole entry): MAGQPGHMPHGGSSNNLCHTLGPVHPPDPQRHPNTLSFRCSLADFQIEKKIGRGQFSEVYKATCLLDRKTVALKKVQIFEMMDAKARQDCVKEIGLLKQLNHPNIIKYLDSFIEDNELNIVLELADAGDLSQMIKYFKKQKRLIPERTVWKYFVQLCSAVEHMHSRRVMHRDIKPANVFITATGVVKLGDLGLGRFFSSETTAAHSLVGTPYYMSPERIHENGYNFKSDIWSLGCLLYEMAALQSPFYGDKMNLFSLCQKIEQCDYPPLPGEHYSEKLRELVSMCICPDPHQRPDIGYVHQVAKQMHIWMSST

Compound: Nc1nc(N)c2nc(-c3cccc(O)c3)c(-c3cccc(O)c3)nc2n1 [Compound I, 6,7-bis-(3-hydroxyphenyl)-pteridine-2,4-diamine]
- Percent Control, Fer (Fer): 80%
- Percent Control, DDR2 (DDR2): 88%
- Percent Control, Akt1* (Akt1): 96%
- Percent Control, cSrc (cSrc): 53%
- Percent Control, NEK6 (NEK6): 97%
- histamine-induced permeability / edema formation (histamine-induced edema): blocked; also recorded: reduced edema formation
- Percent Control, cKit (cKit): 96%
- Percent Control, ROCK-I (ROCK-I): 93%
- Percent Control, IR (IR): 81%
- reduction of infarct size vs. controls (myocardial infarct; single 0.3 mg/kg IV bolus 30 min post-reperfusion, N=12-13): 32%
- infarct size (myocardial infarct; single 0.3 mg/kg IV bolus 30 min post-reperfusion, controls 56%): 40%
- increase in viable tissue within the ischemic zone (myocardial infarct; [1]): 37%
- reduction of free wall infarct size vs. vehicle-treated controls (myocardial infarct; [1]): 38%
- reduction of infarct size (infarct area as percent of total LV ischemic area) (myocardial infarct; [1]): 35%
- Percent Control, PKCi (PKCi): 105%
- Percent Control, MINK (MINK): 88%
- Percent Control, Blk (m) (Blk): 57%
- Percent Control, PKD2 (PKD2): 37%
